Results from patent publication US12139487B2, “Compounds and uses thereof” (Foghorn Therapeutics Inc., priority 2022, dated 2024).

Columns and labels:
BRM = biological target: T1, BRM (Homo sapiens, UniProt P51531); experiment: ATPase catalytic activity assay (ADP-Glo), BRM; type: biochemical; conditions: Table 10; for Ratio (BRG1 IC50 (μM) divided by BRM IC50 (μM)): ATPase assay, selectivity BRG1/BRM; for IC50: ATPase catalytic activity assay (ADP-Glo)
T1 construct: made in house; host or cells: High Five insect cells
T1 sequence (P51531 whole entry): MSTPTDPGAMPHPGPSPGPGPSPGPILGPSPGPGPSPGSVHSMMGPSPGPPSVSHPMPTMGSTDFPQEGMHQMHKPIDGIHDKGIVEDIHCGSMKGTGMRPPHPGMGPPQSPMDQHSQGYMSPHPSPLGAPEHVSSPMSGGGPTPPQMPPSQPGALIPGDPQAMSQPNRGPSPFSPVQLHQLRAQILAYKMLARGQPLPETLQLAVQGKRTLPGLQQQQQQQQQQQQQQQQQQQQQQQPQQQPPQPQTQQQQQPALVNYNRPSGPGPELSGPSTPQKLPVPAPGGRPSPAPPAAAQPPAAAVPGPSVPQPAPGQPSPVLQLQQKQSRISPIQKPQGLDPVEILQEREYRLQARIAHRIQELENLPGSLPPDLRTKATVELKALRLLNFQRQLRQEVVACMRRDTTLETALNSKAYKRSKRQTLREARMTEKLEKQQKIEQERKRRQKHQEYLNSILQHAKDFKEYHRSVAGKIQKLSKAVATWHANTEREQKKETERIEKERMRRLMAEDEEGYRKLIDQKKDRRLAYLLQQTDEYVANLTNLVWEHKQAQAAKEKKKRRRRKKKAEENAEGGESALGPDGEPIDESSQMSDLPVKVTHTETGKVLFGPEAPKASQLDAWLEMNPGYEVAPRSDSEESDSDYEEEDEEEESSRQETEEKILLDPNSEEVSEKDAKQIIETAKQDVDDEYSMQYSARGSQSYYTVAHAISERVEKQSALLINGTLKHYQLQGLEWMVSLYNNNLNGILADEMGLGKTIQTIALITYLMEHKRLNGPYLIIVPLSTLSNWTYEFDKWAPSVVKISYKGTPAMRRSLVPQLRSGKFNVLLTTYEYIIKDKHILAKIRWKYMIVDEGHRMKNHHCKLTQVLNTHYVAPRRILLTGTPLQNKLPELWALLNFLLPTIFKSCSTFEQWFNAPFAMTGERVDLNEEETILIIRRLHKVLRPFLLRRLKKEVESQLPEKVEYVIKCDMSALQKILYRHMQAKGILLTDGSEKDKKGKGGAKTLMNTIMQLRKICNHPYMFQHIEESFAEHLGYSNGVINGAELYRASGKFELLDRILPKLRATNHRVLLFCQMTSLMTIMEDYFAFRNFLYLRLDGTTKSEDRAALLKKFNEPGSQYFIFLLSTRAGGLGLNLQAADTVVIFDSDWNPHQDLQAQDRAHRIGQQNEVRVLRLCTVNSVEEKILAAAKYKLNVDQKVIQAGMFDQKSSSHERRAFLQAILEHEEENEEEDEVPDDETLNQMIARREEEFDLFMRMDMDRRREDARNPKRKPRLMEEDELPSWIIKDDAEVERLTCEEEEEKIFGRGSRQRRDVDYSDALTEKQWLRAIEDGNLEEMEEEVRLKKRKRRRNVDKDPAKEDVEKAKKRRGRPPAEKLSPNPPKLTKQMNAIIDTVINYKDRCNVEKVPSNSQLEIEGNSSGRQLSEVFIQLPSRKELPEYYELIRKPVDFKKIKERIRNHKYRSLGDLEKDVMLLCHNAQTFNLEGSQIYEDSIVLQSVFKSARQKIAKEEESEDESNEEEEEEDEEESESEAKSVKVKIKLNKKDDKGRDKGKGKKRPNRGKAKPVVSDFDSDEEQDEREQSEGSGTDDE
Procedure: (§1) The ATPase catalytic activity of BRM or BRG-1 was measured by an in vitro biochemical assay using ADP-Glo™ (Promega, V9102). The ADP-Glo™ kinase assay is performed in two steps once the reaction is complete. The first step is to deplete any unconsumed ATP in the reaction. The second step is to convert the reaction product ADP to ATP, which will be utilized by the luciferase to generate luminesce and be detected by a luminescence reader, such as Envision.
The assay reaction mixture […] contains 30 nM of BRM or BRG-1, 20 nM salmon sperm DNA (from Invitrogen, UltraPure™ Salmon Sperm DNA Solution, cat #15632011), and 400 μM of ATP in the ATPase assay buffer, which comprises of 20 mM Tris, pH 8, 20 mM MgCl2, 50 mM NaCl, 0.1% Tween-20, and 1 mM fresh DTT (Pierce™ DTT (Dithiothreitol), cat #20290). The reaction is initiated by the addition of the 2.5 μL ATPase solution to 2.5 μL ATP/DNA solution on low volume white Proxiplate-384 plus plate (PerkinElmer, cat #6008280) and incubates at room temperature for 1 hour. Then, following addition of 5 μL of ADP-Glo™ Reagent provided in the kit, the reaction incubates at room temperature for 40 minutes. Then, 10 μL of Kinase Detection Reagent provided in the kit is added to convert ADP to ATP, and the reaction incubates at room temperature for 60 minutes. Finally, luminescence measurement is collected with a plate-reading luminometer, such as Envision.

BRG-1 = biological target: T2, BRG-1 (Homo sapiens, UniProt P51532); experiment: ATPase catalytic activity assay (ADP-Glo), BRG-1; type: biochemical; conditions: Table 10, read-out: BRG1 IC50
T2 construct: made in house; host or cells: High Five insect cells
T2 sequence (P51532 whole entry): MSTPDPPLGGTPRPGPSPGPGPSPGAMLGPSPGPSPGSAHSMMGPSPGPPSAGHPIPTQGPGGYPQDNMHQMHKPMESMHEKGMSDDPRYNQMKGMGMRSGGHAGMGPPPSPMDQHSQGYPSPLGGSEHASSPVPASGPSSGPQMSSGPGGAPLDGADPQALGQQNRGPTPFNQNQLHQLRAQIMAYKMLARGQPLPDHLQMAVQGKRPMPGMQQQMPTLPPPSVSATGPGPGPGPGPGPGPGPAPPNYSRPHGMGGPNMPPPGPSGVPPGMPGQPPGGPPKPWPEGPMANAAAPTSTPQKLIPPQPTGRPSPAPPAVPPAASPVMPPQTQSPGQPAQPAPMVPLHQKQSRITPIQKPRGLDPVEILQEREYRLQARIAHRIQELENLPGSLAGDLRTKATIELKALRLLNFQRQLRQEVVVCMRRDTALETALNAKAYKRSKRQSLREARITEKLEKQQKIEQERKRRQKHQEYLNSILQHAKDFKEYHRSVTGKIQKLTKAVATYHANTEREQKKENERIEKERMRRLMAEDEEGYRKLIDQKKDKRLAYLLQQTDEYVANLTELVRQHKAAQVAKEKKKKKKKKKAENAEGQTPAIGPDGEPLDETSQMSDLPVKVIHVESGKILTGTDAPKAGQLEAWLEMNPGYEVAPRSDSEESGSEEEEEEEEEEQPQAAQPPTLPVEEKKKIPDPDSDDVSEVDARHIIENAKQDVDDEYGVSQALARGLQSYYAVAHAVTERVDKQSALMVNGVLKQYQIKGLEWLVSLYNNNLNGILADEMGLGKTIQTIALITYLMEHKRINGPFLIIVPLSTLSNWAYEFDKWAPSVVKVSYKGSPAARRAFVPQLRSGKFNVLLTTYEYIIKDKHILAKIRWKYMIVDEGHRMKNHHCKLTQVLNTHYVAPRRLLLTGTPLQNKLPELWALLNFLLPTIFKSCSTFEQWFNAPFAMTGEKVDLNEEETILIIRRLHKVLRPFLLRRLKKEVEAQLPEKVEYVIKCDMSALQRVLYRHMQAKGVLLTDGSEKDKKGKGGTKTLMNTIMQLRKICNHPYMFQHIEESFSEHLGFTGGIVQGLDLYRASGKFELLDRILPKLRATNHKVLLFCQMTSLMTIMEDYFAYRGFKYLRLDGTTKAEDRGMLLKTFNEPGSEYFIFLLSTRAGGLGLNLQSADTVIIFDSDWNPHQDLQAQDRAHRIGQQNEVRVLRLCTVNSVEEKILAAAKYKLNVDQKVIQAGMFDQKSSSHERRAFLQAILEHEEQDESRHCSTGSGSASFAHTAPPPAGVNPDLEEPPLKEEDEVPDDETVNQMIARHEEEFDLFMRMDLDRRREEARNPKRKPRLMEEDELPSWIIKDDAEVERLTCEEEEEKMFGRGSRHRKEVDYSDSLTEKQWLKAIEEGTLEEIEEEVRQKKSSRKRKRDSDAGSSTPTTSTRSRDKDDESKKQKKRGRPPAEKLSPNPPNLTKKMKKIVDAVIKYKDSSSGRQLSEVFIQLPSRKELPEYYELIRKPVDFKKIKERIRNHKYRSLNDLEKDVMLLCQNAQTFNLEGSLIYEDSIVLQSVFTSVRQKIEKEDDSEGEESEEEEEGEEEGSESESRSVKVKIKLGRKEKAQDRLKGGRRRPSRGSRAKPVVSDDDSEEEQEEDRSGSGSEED
Procedure: as §1
Then, following addition of 5 μL of ADP-Glo™ Reagent provided in the kit, the reaction incubates at room temperature for 40 minutes. Then, 10 μL of Kinase Detection Reagent provided in the kit is added to convert ADP to ATP, and the reaction incubates at room temperature for 60 minutes. Finally, luminescence measurement is collected with a plate-reading luminometer, such as Envision.

Ratio (BRG1 IC50 (μM) divided by BRM IC50 (μM)) (BRM) | IC50 (BRM) | IC50 (BRG-1) | Compound
26.00 | 2.8 nM | 80.1 nM | COc1nc(C(C)(F)F)ccc1-c1ccc2cnc(CNC(=O)c3cc(F)c4c(c3)S(=O)(=O)[C@@H](F)COC4)cc2n1 [Compound 75]
28.69 | 10.4 nM | 329 nM | COc1nc([C@H](C)F)ccc1-c1ccc2cnc(CNC(=O)c3cc(Cl)c4c(c3)S(=O)(=O)[C@@H](F)CCO4)cc2n1 [Compound 308]
11.63 | 1.4 nM | 16.2 nM | CCO[C@@H]1CCN(c2cccc(-c3ccc4cnc(CNC(=O)c5cc(F)c6c(c5)S(=O)(=O)[C@@H](F)COC6)cc4n3)n2)C1 [Compound 12]
23.94 | 8 nM | 219 nM | O=C(NCc1cc2nc(-c3cccc(C4CC4)n3)ccc2cn1)c1cc(F)c2c(c1)S(=O)(=O)[C@@H](F)CCO2 [Compound 252]
13.86 | 4.1 nM | 56.7 nM | O=C(NCc1cc2nc(N3CCOc4cc(N5C[C@@H](F)[C@H](F)C5)cnc43)ccc2cn1)c1cc(Cl)c2c(c1)S(=O)(=O)[C@@H](F)COC2 [Compound 121]
10.16 | 9.3 nM | 94.3 nM | C#Cc1cnc2c(c1)OCCN2c1ccc2cnc(CNC(=O)c3cc(F)c4c(c3)S(=O)(=O)[C@@H](F)CCO4)cc2n1 [Compound 281]
13.42 | 2.3 nM | 34.1 nM | O=C(NCc1cc2nc(N3CCOc4cc(N5CCC5)cnc43)ccc2cn1)c1cc(F)c2c(c1)S(=O)(=O)[C@@H](F)COC2 [Compound 48]
30.39 | 32.2 nM | 1180 nM | COc1cccc(-c2ccc3cnc(CNC(=O)c4cc(Cl)c5c(c4)S(=O)(=O)[C@@H](F)CCO5)cc3n2)n1 [Compound 322]
20.66 | 3.2 nM | 78.3 nM | O=C(NCc1cc2nc(N3CCOc4cc([C@@H]5CC5(F)F)cnc43)ccc2cn1)c1cc(F)c2c(c1)S(=O)(=O)[C@@H](F)CCO2 [Compound 87]
16.02 | 2.8 nM | 45.1 nM | O=C(NCc1cc2nc(N3CCCc4c3ccnc4OC3CC3)ccc2cn1)c1cc(F)c2c(c1)S(=O)(=O)[C@@H](F)CCO2 [Compound 76]
12.83 | 5.6 nM | 49.3 nM | C[C@@H]1CCN1c1cnc2c(c1)OCCN2c1ccc2cnc(CNC(=O)c3cc(C(F)F)c4c(c3)S(=O)(=O)[C@@H](F)COC4)cc2n1 [Compound 175]
10.51 | 8.5 nM | 89.7 nM | CC1CN(c2ccnc3c2OCCN3c2ccc3cnc(CNC(=O)c4cc(F)c5c(c4)S(=O)(=O)[C@@H](F)CCO5)cc3n2)C1 [Compound 263]
12.76 | 1.5 nM | 23.4 nM | CCN(CC)c1cnc2c(c1)OCCN2c1ccc2cnc(CNC(=O)c3cc(F)c4c(c3)S(=O)(=O)[C@@H](F)COC4)cc2n1 [Compound 17]
13.09 | 5.5 nM | 74.1 nM | O=C(NCc1cc2nc(N3CCCc4cc(N5CCOCC5)cnc43)ccc2cn1)c1cc(F)c2c(c1)S(=O)(=O)[C@@H](F)CCO2 [Compound 172]
21.33 | 3.2 nM | 88.9 nM | O=C(NCc1cc2nc(N3CCOc4ccc([C@H]5C[C@H]5F)nc43)ccc2cn1)c1cc(F)c2c(c1)S(=O)(=O)[C@@H](F)COC2 [Compound 88]
11.89 | 9.9 nM | 118 nM | C[C@H]1C[C@H]1c1cnc2c(c1)OCCN2c1ccc2cnc(CNC(=O)c3cc(F)c4c(c3)S(=O)(=O)[C@@H](F)CCO4)cc2n1 [Compound 300]
26.75 | 3.6 nM | 95.4 nM | O=C(NCc1cc2nc(N3CCOc4cc(F)cnc43)ccc2cn1)c1cc(F)c2c(c1)S(=O)(=O)[C@@H](F)CCO2 [Compound 102]
18.65 | 1.7 nM | 31.1 nM | CO[C@H](C)COc1ccc2c(c1)N(c1ccc3cnc(CNC(=O)c4cc(F)c5c(c4)S(=O)(=O)[C@@H](F)CCO5)cc3n1)CCO2 [Compound 24]
24.03 | 4.1 nM | 98.3 nM | Cc1ccc(-c2ccc3cnc(CNC(=O)c4cc(F)c5c(c4)S(=O)(=O)[C@@H](F)CCO5)cc3n2)c(OC(F)F)n1 [Compound 120]
11.06 | 1.5 nM | 16.6 nM | O=C(NCc1cc2nc(N3CCCc4c3ncc(F)c4OC3CC3)ccc2cn1)c1cc(F)c2c(c1)S(=O)(=O)[C@@H](F)CCO2 [Compound 15]

Ratio (BRG1 IC50 (μM) divided by BRM IC50 (μM)) (BRM) | IC50 (BRM) | IC50 (BRG-1) | Compound
22.15 | 16.1 nM | 357 nM | Cc1cc(C(=O)NCc2cc3nc(-c4ccc(OC(F)F)c(C5CC5)n4)ccc3cn2)cc2c1OCC[C@H](F)S2(=O)=O [Compound 324]
 | 3.5 nM | 40.7 nM | O=C(NCc1cc2nc(-c3cccc(C4CC4)n3)ccc2cn1)c1cc(F)c2c(c1)S(=O)(=O)[C@@H](F)CCOC2 [Compound 327]
23.12 | 9.8 nM | 226 nM | COc1nc(CC(F)F)ccc1-c1ccc2cnc(CNC(=O)c3cc(F)c4c(c3)S(=O)(=O)[C@@H](F)CCO4)cc2n1 [Compound 292]
13.76 | 6.5 nM | 89.3 nM | CO[C@@H]1C[C@H]1N(C)c1cccc(-c2ccc3cnc(CNC(=O)c4cc(F)c5c(c4)S(=O)(=O)[C@@H](F)COC5)cc3n2)n1 [Compound 215]
 |  | 82.4 nM | O=C(NCc1cc2nc(N3CCOc4cc(C5CC5)cnc43)ccc2cn1)c1cc(F)c2c(c1)S(=O)(=O)[C@@H](F)CCO2 [Compound 241]
 |  | 102 nM | O=C(NCc1cc2nc(N3CCOc4cc(N5C[C@@H](F)[C@H](F)C5)cnc43)ccc2cn1)c1cc(Cl)c2c(c1)S(=O)(=O)[C@@H](F)CCO2 [Compound 258, (R)-9-chloro-N-((2-(7-((3R,4R)-3,4-difluoropyrrolidin-1-yl)-2,3-dihydro-4H-pyrido[3,2-b][1,4]oxazin-4-yl)-1,6-naphthyridin-7-yl)methyl)-4-fluoro-3,4-dihydro-2H-benzo[b][1,4]oxathiepine-7-carboxamide 5,5-dioxide]
 |  | 148 nM | O=C(NCc1cc2nc(-c3cncc(N4CCCC4)n3)ccc2cn1)c1cc(F)c2c(c1)S(=O)(=O)[C@@H](F)CCO2 [Compound 220]
 |  | 72 nM | C[C@@H]1CCN1c1cc2c(cn1)N(c1ccc3cnc(CNC(=O)c4cc(F)c5c(c4)S(=O)(=O)[C@@H](F)COC5)cc3n1)CCO2 [Compound 214]
 |  | 90.3 nM | O=C(NCc1cc2nc(N3CCOc4cc(OCC(F)F)cnc43)ccc2cn1)c1cc(F)c2c(c1)S(=O)(=O)[C@@H](F)COC2 [Compound 213]
 |  | 99 nM | C[C@@H]1CN(c2cccc(/C=C/c3ccnc(CNC(=O)c4cc(Cl)c5c(c4)S(=O)(=O)[C@@H](F)COC5)c3)n2)C[C@H](C)O1 [Compound 107]
 |  | 61.6 nM | CO[C@H]1C[C@@H]1N(C)c1cccc(-c2ccc3cnc(CNC(=O)c4cc(F)c5c(c4)S(=O)(=O)[C@@H](F)COC5)cc3n2)n1 [Compound 211]
 |  | 39 nM | CCO[C@@H]1CCN(c2cccc(-c3ccc4cnc(CNC(=O)c5cc(F)c6c(c5)S(=O)(=O)[C@@H](F)CCO6)cc4n3)n2)C1 [Compound 92]
 |  | 42.3 nM | COCCOc1ccc2c(c1)OCCN2c1ccc2cnc(CNC(=O)c3cc(F)c4c(c3)S(=O)(=O)[C@@H](F)CCO4)cc2n1 [Compound 93]
 |  | 111 nM | C[C@@H]1CCCN1c1cnc2c(c1)OCCN2c1ccc2cnc(CNC(=O)c3cc(F)c4c(c3)S(=O)(=O)[C@@H](F)CCO4)cc2n1 [Compound 243]
 |  | 177 nM | O=C(NCc1cc2nc(N3CCOc4ccc(N5CCC5)nc43)ccc2cn1)c1cc(F)c2c(c1)S(=O)(=O)[C@@H](F)CCO2 [Compound 264]
 |  | 35.3 nM | CN(C)c1cnc2c(c1)OCCN2c1ccc2cnc(CNC(=O)c3cc(F)c4c(c3)S(=O)(=O)[C@@H](F)CCO4)cc2n1 [Compound 106]
 |  | 167 nM | COCC1CN(c2ccc3c(c2)N(c2ccc4cnc(CNC(=O)c5cc(F)c6c(c5)S(=O)(=O)[C@@H](F)CCO6)cc4n2)CCO3)C1 [Compound 219]
 |  | 108 nM | [2H]C([2H])([2H])Oc1ccc(-c2ccc3cnc(CNC(=O)c4cc(F)c5c(c4)S(=O)(=O)[C@@H](F)CCO5)cc3n2)nc1C1CC1 [Compound 257]
 |  | 44 nM | C[C@@H]1OC[C@H](F)S(=O)(=O)c2cc(C(=O)NCc3cc4nc(N5CCOc6cc(C7CC7)cnc65)ccc4cn3)ccc21 [Compound 49]
